The values that follow come from publication PMC5218480 (PLoS ONE, 2017).

The test system of the assay is MV-4-11 cells. The assay can be described thus: Gene expression microarray analysis (Affymetrix PrimeView) and GSEA. The format is cell-based, human. To be noted: ProbeSet 11754607_s_at; LIST B. More on the design: RFU PODN (11730768_x_at) / Fold change /veh PODN (11730768_x_at) / RFU LINC00158 (11744669_a_at) / Fold change /veh LINC00158 (11744669_a_at) / RFU DUSP10 (11751237_a_at) / Fold change /veh DUSP10 (11751237_a_at) / RFU ID3 (11757404_x_at) / Fold change /veh ID3 (11757404_x_at) / RFU PLEKHG5 (11737974_s_at) / Fold change /veh PLEKHG5 (11737974_s_at) / RFU LRRC4B (11730491_at) / Fold change /veh LRRC4B (11730491_at) / RFU GIMAP4 (11747438_a_at) / Fold change /veh GIMAP4 (11747438_a_at) / RFU KRT8 (11758183_x_at) / Fold change /veh KRT8 (11758183_x_at) / RFU CNN1 (11734310_a_at) / Fold change /veh CNN1 (11734310_a_at) / RFU VPS37D (11726825_at) / Fold change /veh VPS37D (11726825_at) / RFU C10orf10 (11716522_x_at) / Fold change /veh C10orf10 (11716522_x_at) / RFU KIR2DL2 /// KIR2DL4 /// KIR2DL5A /// KIR2DL5B /// KIR2DS1 /// KIR2DS2 /// KIR2DS3 /// KIR2DS4 /// KIR3DL3 /// KIR3DL3 /// KIR3DS1 (11738374_at) / Fold change /veh KIR2DL2 /// KIR2DL4 /// KIR2DL5A /// KIR2DL5B /// KIR2DS1 /// KIR2DS2 /// KIR2DS3 /// KIR2DS4 /// KIR3DL3 /// KIR3DL3 /// KIR3DS1 (11738374_at) / RFU C1QL1 (11718748_at) / Fold change /veh C1QL1 (11718748_at) / RFU TMPRSS4 (11747572_a_at) / Fold change /veh TMPRSS4 (11747572_a_at) / RFU HAMP (11756126_x_at) / Fold change /veh HAMP (11756126_x_at) / RFU RNFT2 (11725882_a_at) / Fold change /veh RNFT2 (11725882_a_at) / RFU NR4A2 (11747474_a_at) / Fold change /veh NR4A2 (11747474_a_at) / RFU ABCC12 (11746883_a_at) / Fold change /veh ABCC12 (11746883_a_at) / RFU TMEM136 (11760407_x_at) / Fold change /veh TMEM136 (11760407_x_at) / RFU CLDN22 /// WWC2 (11732394_at) / Fold change /veh CLDN22 /// WWC2 (11732394_at) / RFU HLA-DPB1 (11760878_x_at) / Fold change /veh HLA-DPB1 (11760878_x_at) / RFU SPINT1 (11716480_a_at) / Fold change /veh SPINT1 (11716480_a_at) / RFU GAP43 (11754022_s_at) / Fold change /veh GAP43 (11754022_s_at) / RFU A4GNT (11735810_at) / Fold change /veh A4GNT (11735810_at) / RFU PRB3 (11715151_x_at) / Fold change /veh PRB3 (11715151_x_at) / RFU TUBB4B (11761932_at) / Fold change /veh TUBB4B (11761932_at) / RFU CAPN14 (11732068_a_at) / Fold change /veh CAPN14 (11732068_a_at) / RFU TMCC2 (11721928_a_at) / Fold change /veh TMCC2 (11721928_a_at) / RFU IRGQ (11745062_a_at) / Fold change /veh IRGQ (11745062_a_at) / RFU FAM174B (11720279_a_at) / Fold change /veh FAM174B (11720279_a_at) / RFU TMPRSS4 (11748680_a_at) / Fold change /veh TMPRSS4 (11748680_a_at) / RFU FAM212B (11763350_a_at) / Fold change /veh FAM212B (11763350_a_at) / RFU PLEKHG5 (11743358_a_at) / Fold change /veh PLEKHG5 (11743358_a_at) / RFU ZSCAN30 (11745921_a_at) / Fold change /veh ZSCAN30 (11745921_a_at) / RFU CMKLR1 (11741424_a_at) / Fold change /veh CMKLR1 (11741424_a_at) / RFU LOC101060620 /// MAPK8IP1 (11723275_at) / Fold change /veh LOC101060620 /// MAPK8IP1 (11723275_at) / RFU SPTSSB (11747773_x_at) / Fold change /veh SPTSSB (11747773_x_at) / RFU PRSS12 (11739890_at) / Fold change /veh PRSS12 (11739890_at) / RFU BIN1 (11741810_x_at) / Fold change /veh BIN1 (11741810_x_at) / RFU WNT11 (11732464_a_at) / Fold change /veh WNT11 (11732464_a_at) / RFU C10orf10 (11716521_a_at) / Fold change /veh C10orf10 (11716521_a_at) / RFU C5orf56 (11738089_at) / Fold change /veh C5orf56 (11738089_at) / RFU CYB561 (11721691_x_at) / Fold change /veh CYB561 (11721691_x_at) / RFU ANKRD19P (11752326_a_at) / Fold change /veh ANKRD19P (11752326_a_at) / RFU OR2T12 /// OR2T33 /// OR2T8 (11738714_s_at) / Fold change /veh OR2T12 /// OR2T33 /// OR2T8 (11738714_s_at) / RFU VCAN (11748164_a_at) / Fold change /veh VCAN (11748164_a_at) / RFU JSRP1 (11732532_at) / Fold change /veh JSRP1 (11732532_at) / RFU KRTAP10-11 (11738290_x_at) / Fold change /veh KRTAP10-11 (11738290_x_at) / RFU MYO3A (11730013_a_at) / Fold change /veh MYO3A (11730013_a_at) / RFU EBF3 (11725865_a_at) / Fold change /veh EBF3 (11725865_a_at) / RFU CAMK2N1 (11719241_x_at) / Fold change /veh CAMK2N1 (11719241_x_at) / RFU C5orf56 (11738088_a_at) / Fold change /veh C5orf56 (11738088_a_at) / RFU OLFML3 (11715873_a_at) / Fold change /veh OLFML3 (11715873_a_at) / RFU LOC100653217 /// NTM (11731650_a_at) / Fold change /veh LOC100653217 /// NTM (11731650_a_at) / RFU MAPK11 (11762145_a_at) / Fold change /veh MAPK11 (11762145_a_at) / RFU FIZ1 (11724087_x_at) / Fold change /veh FIZ1 (11724087_x_at) / RFU OASL (11726364_x_at) / Fold change /veh OASL (11726364_x_at) / RFU SOX15 (11748057_x_at) / Fold change /veh SOX15 (11748057_x_at) / RFU CD79A (11719716_a_at) / Fold change /veh CD79A (11719716_a_at) / RFU HIST1H1D (11736915_at) / Fold change /veh HIST1H1D (11736915_at) / RFU CASKIN2 (11723855_a_at) / Fold change /veh CASKIN2 (11723855_a_at) / RFU LOC730098 (11760151_x_at) / Fold change /veh LOC730098 (11760151_x_at) / RFU OR4N2 (11742367_at) / Fold change /veh OR4N2 (11742367_at) / RFU PRRT2 (11749266_a_at) / Fold change /veh PRRT2 (11749266_a_at) / RFU SNX32 (11753110_a_at) / Fold change /veh SNX32 (11753110_a_at) / RFU CDHR5 (11726645_a_at) / Fold change /veh CDHR5 (11726645_a_at) / RFU RCAN1 (11760418_a_at) / Fold change /veh RCAN1 (11760418_a_at) / RFU FAM167A (11723789_a_at) / Fold change /veh FAM167A (11723789_a_at) / RFU FAM26E (11764081_at) / Fold change /veh FAM26E (11764081_at) / RFU ISYNA1 (11749810_s_at) / Fold change /veh ISYNA1 (11749810_s_at) / RFU ACY1 (11761880_at) / Fold change /veh ACY1 (11761880_at) / RFU 11764098_at / Fold change /veh 11764098_at / RFU SAMD14 (11745864_x_at) / Fold change /veh SAMD14 (11745864_x_at) / RFU NPB (11741838_a_at) / Fold change /veh NPB (11741838_a_at) / RFU TMPRSS6 (11731388_a_at) / Fold change /veh TMPRSS6 (11731388_a_at) / RFU KRTAP10-2 (11738614_at) / Fold change /veh KRTAP10-2 (11738614_at) / RFU ARHGAP8 /// PRR5-ARHGAP8 (11727945_x_at) / Fold change /veh ARHGAP8 /// PRR5-ARHGAP8 (11727945_x_at) / RFU KRTAP5-7 /// NADSYN1 (11734609_at) / Fold change /veh KRTAP5-7 /// NADSYN1 (11734609_at) / RFU RASL12 (11751679_a_at) / Fold change /veh RASL12 (11751679_a_at) / RFU CDKN2B (11736163_a_at) / Fold change /veh CDKN2B (11736163_a_at) / RFU PRF1 (11729649_at) / Fold change /veh PRF1 (11729649_at) / RFU, ZNF638 /// ZNF638-IT1 / Fold change vs veh, ZNF638 /// ZNF638-IT1 / RFU, PANK3 / Fold change vs veh, PANK3 / RFU, SH3YL1 / Fold change vs veh, SH3YL1 / RFU, ZEB2 / Fold change vs veh, ZEB2 / RFU, NRIP1 / Fold change vs veh, NRIP1 / RFU, PTTG1IP / Fold change vs veh, PTTG1IP / RFU, CAPN2 / Fold change vs veh, CAPN2 / RFU, MED14 / Fold change vs veh, MED14 / RFU, SNORA58 / Fold change vs veh, SNORA58 / RFU, C1orf63 / Fold change vs veh, C1orf63 / RFU, LRRFIP1 / Fold change vs veh, LRRFIP1 / RFU, NDUFAF7 / Fold change vs veh, NDUFAF7 / RFU, SLC12A2 / Fold change vs veh, SLC12A2 / RFU, IBTK / Fold change vs veh, IBTK / RFU, ESF1 / Fold change vs veh, ESF1 / Fold change vs veh, TMEM50B / RFU, TAOK1 / Fold change vs veh, TAOK1 / RFU, ACBD3 / Fold change vs veh, ACBD3 / RFU, TMA16 / Fold change vs veh, TMA16 / RFU, RWDD3 / Fold change vs veh, RWDD3 / RFU, BCAT1 / Fold change vs veh, BCAT1 / RFU, EDEM3 / Fold change vs veh, EDEM3 / RFU, TMEM33 / Fold change vs veh, TMEM33 / RFU, WDR75 / Fold change vs veh, WDR75 / RFU, AHCTF1 / Fold change vs veh, AHCTF1 / RFU, TFRC / Fold change vs veh, TFRC / RFU, ZDHHC17 / Fold change vs veh, ZDHHC17 / RFU, NOM1 / Fold change vs veh, NOM1 / RFU, ARL8B / Fold change vs veh, ARL8B / RFU, ZBTB11 / Fold change vs veh, ZBTB11 / RFU, TAMM41 / Fold change vs veh, TAMM41 / RFU, KIAA1704 /// LOC100996395 / Fold change vs veh, KIAA1704 /// LOC100996395 / RFU, ING1 / Fold change vs veh, ING1 / RFU, TRMT61B / Fold change vs veh, TRMT61B / RFU, FUBP3 / Fold change vs veh, FUBP3 / RFU, TP53 / Fold change vs veh, TP53 / RFU, TNKS2 / Fold change vs veh, TNKS2 / RFU, ZFP14 / Fold change vs veh, ZFP14 / RFU, ACTR2 / Fold change vs veh, ACTR2 / RFU, PPP3R1 / Fold change vs veh, PPP3R1 / RFU, PIK3R1 / Fold change vs veh, PIK3R1 / RFU, HNRNPA1 / Fold change vs veh, HNRNPA1 / RFU, RNF170 / Fold change vs veh, RNF170 / RFU, ZNF28 / Fold change vs veh, ZNF28 / RFU, RNGTT / Fold change vs veh, RNGTT / RFU, OGT / Fold change vs veh, OGT / RFU, BRD1 / Fold change vs veh, BRD1 / RFU, MARS / Fold change vs veh, MARS / RFU, ZNF655 / Fold change vs veh, ZNF655 / RFU, FAHD1 / Fold change vs veh, FAHD1 / RFU, BDP1 / Fold change vs veh, BDP1 / RFU, LRRCC1 / Fold change vs veh, LRRCC1 / RFU, ARID1A / Fold change vs veh, ARID1A / RFU, ZNF146 / Fold change vs veh, ZNF146 / RFU, ZNF330 / Fold change vs veh, ZNF330 / RFU, GPN3 / Fold change vs veh, GPN3 / RFU, C9orf123 / Fold change vs veh, C9orf123 / RFU, N4BP2L2 / Fold change vs veh, N4BP2L2 / RFU, ARFIP1 / Fold change vs veh, ARFIP1 / RFU, FAM179B / Fold change vs veh, FAM179B / RFU, BCL10 / Fold change vs veh, BCL10 / RFU, UHRF1BP1L / Fold change vs veh, UHRF1BP1L / RFU, BET1 / Fold change vs veh, BET1 / RFU, CNOT2 / Fold change vs veh, CNOT2 / RFU, ZNF268 / Fold change vs veh, ZNF268 / Fold change vs veh, ZNF507 / RFU, DGCR2 / Fold change vs veh, DGCR2 / RFU, WDSUB1 / Fold change vs veh, WDSUB1 / Fold change vs veh, HSP90B1 /// MIR3652 / RFU, ADSS / Fold change vs veh, ADSS / RFU, GK / Fold change vs veh, GK / RFU, ZNF148 / Fold change vs veh, ZNF148 / RFU, TAF9 / Fold change vs veh, TAF9 / RFU, SLC1A5 / Fold change vs veh, SLC1A5 / RFU, SLMO2 / Fold change vs veh, SLMO2 / RFU, ABCC4 / Fold change vs veh, ABCC4 / RFU, LOC101060439 /// RAP1B / Fold change vs veh, LOC101060439 /// RAP1B / RFU, RFX7 / Fold change vs veh, RFX7 / RFU, GTPBP10 / Fold change vs veh, GTPBP10 / RFU, CNEP1R1 / Fold change vs veh, CNEP1R1 / RFU, BIVM-ERCC5 /// ERCC5 / Fold change vs veh, BIVM-ERCC5 /// ERCC5 / RFU, ILF3 / Fold change vs veh, ILF3 / RFU 11762660_at / Fold change /veh 11762660_at / RFU VCAN (11757783_s_at) / Fold change /veh VCAN (11757783_s_at) / RFU DDX43 (11728927_at) / Fold change /veh DDX43 (11728927_at) / RFU KRT8 (11758188_x_at) / Fold change /veh KRT8 (11758188_x_at) / RFU NKD1 (11759106_at) / Fold change /veh NKD1 (11759106_at) / RFU SRD5A1 (11742802_a_at) / Fold change /veh SRD5A1 (11742802_a_at) / RFU TPSAB1 /// TPSB2 (11721975_s_at) / Fold change /veh TPSAB1 /// TPSB2 (11721975_s_at) / RFU GSTM3 (11746129_a_at) / Fold change /veh GSTM3 (11746129_a_at) / RFU IL23R (11737362_x_at) / Fold change /veh IL23R (11737362_x_at) / RFU TMEM51 (11727254_a_at) / Fold change /veh TMEM51 (11727254_a_at) / RFU PIWIL2 (11732686_x_at) / Fold change /veh PIWIL2 (11732686_x_at) / RFU ORM1 (11744905_x_at) / Fold change /veh ORM1 (11744905_x_at) / RFU CCDC152 (11743942_at) / Fold change /veh CCDC152 (11743942_at) / RFU ECM1 (11717891_a_at) / Fold change /veh ECM1 (11717891_a_at) / RFU IL23R (11748794_a_at) / Fold change /veh IL23R (11748794_a_at) / RFU TNFAIP8L3 (11732012_x_at) / Fold change /veh TNFAIP8L3 (11732012_x_at) / RFU MBOAT4 (11741988_at) / Fold change /veh MBOAT4 (11741988_at) / RFU 11764193_at / Fold change /veh 11764193_at / RFU TMEM53 (11763286_at) / Fold change /veh TMEM53 (11763286_at) / RFU MAGEB2 (11727129_at) / Fold change /veh MAGEB2 (11727129_at) / RFU TMEM200A (11744735_a_at) / Fold change /veh TMEM200A (11744735_a_at) / RFU CCDC152 (11751479_a_at) / Fold change /veh CCDC152 (11751479_a_at) / RFU FAM211A (11726209_a_at) / Fold change /veh FAM211A (11726209_a_at) / RFU RGS16 (11746705_a_at) / Fold change /veh RGS16 (11746705_a_at) / RFU VCAN (11755009_s_at) / Fold change /veh VCAN (11755009_s_at) / RFU RHOB (11743442_s_at) / Fold change /veh RHOB (11743442_s_at) / RFU RGS16 (11720943_a_at) / Fold change /veh RGS16 (11720943_a_at) / RFU RGS16 (11720944_at) / Fold change /veh RGS16 (11720944_at) / RFU, VPS4B / Fold change vs veh, VPS4B / RFU, CREB1 / Fold change vs veh, CREB1 / RFU, DNAJC13 / Fold change vs veh, DNAJC13 / RFU, GNAQ / Fold change vs veh, GNAQ / RFU, CDK5R1 / Fold change vs veh, CDK5R1 / RFU, ZRANB3 / Fold change vs veh, ZRANB3 / RFU, CUL4A / Fold change vs veh, CUL4A / RFU, CCNY / Fold change vs veh, CCNY / RFU, UFL1 / Fold change vs veh, UFL1 / RFU, COG3 / Fold change vs veh, COG3 / RFU, DIAPH2 / Fold change vs veh, DIAPH2 / RFU, SKA2 / Fold change vs veh, SKA2 / RFU, AFF3 / Fold change vs veh, AFF3 / RFU, LMF1 / Fold change vs veh, LMF1 / RFU, IPO11 / Fold change vs veh, IPO11 / RFU, DFFB / Fold change vs veh, DFFB / RFU, FOXP1 / Fold change vs veh, FOXP1 / RFU, CARD8 / Fold change vs veh, CARD8 / RFU, STRN3 / Fold change vs veh, STRN3 / RFU, ADK / Fold change vs veh, ADK / RFU, RASSF2 / Fold change vs veh, RASSF2 / RFU, WIPF1 / Fold change vs veh, WIPF1 / RFU, LARP1B / Fold change vs veh, LARP1B / RFU, RASA1 / Fold change vs veh, RASA1 / RFU, RB1 / Fold change vs veh, RB1 / RFU, PPFIA1 / Fold change vs veh, PPFIA1 / RFU, MAT2A / Fold change vs veh, MAT2A / RFU, CCT5 / Fold change vs veh, CCT5 / RFU, WDR92 / Fold change vs veh, WDR92 / RFU, CUX1 / Fold change vs veh, CUX1 / RFU, TTC7A / Fold change vs veh, TTC7A / RFU, TMEM135 / Fold change vs veh, TMEM135 / RFU, DEPTOR / Fold change vs veh, DEPTOR / RFU, CPM / Fold change vs veh, CPM / RFU, DNAJB6 / Fold change vs veh, DNAJB6 / RFU, CACNA2D3 / Fold change vs veh, CACNA2D3 / RFU, DTX4 / Fold change vs veh, DTX4 / RFU, TFCP2 / Fold change vs veh, TFCP2 / RFU, GMCL1 /// GMCL1P1 / Fold change vs veh, GMCL1 /// GMCL1P1 / RFU, AEBP2 / Fold change vs veh, AEBP2 / RFU, SNHG1 /// SNORD22 /// SNORD25 /// SNORD26 /// SNORD27 /// SNORD28 /// SNORD29 /// SNORD31 / Fold change vs veh, SNHG1 /// SNORD22 /// SNORD25 /// SNORD26 /// SNORD27 /// SNORD28 /// SNORD29 /// SNORD31 / Fold change (Aza/veh), C12orf56 (ProbeSet 11735607_a_at) / Fold change (ACY-1035/veh), C12orf56 (ProbeSet 11735607_a_at) / Fold change (Aza/veh), FGFR1OP (ProbeSet 11751329_s_at) / Fold change (ACY-1035/veh), FGFR1OP (ProbeSet 11751329_s_at) / Fold change (Aza/veh), VPS36 (ProbeSet 11739960_a_at) / Fold change (ACY-1035/veh), VPS36 (ProbeSet 11739960_a_at) / RFU SYPL1 (11715823_x_at) / Fold change /veh SYPL1 (11715823_x_at) / RFU IGFBP7 (11715501_s_at) / Fold change /veh IGFBP7 (11715501_s_at) / RFU REEP3 (11722064_at) / Fold change /veh REEP3 (11722064_at) / RFU IGLL1 (11728026_x_at) / Fold change /veh IGLL1 (11728026_x_at): dose or concentration left out as unconfirmed.

Molecules are shown by their SMILES.

Regarding `Nc1ncn([C@@H]2O[C@H](CO)[C@@H](O)[C@H]2O)c(=O)n1` [azacitidine], the “Fold change vs veh, HSP90B1 /// MIR3652” value was found to be 0.90.
